According to patent US20140171431A1, “AZOLE HETEROCYCLIC COMPOUND, PREPARATION METHOD, PHARMACEUTICAL COMPOSITION AND USE” (priority 2011, published 2014):
Read-outs that look alike come from different tables or passages of the source.

How the values were obtained:
Lp-PLA2 in rabbit serum = target: T1, Lp-PLA2 in rabbit serum (Oryctolagus cuniculus, UniProt G1SE06); experiment: In vitro inhibitory activity towards the enzyme Lp-PLA2 in rabbit serum, [3H]PAF substrate; assay type: biochemical; conditions: for inhibition at 0.1 µM: 100 nM
T1 construct: from tissue; host or cells: rabbit serum
T1 sequence (G1SE06 22-423): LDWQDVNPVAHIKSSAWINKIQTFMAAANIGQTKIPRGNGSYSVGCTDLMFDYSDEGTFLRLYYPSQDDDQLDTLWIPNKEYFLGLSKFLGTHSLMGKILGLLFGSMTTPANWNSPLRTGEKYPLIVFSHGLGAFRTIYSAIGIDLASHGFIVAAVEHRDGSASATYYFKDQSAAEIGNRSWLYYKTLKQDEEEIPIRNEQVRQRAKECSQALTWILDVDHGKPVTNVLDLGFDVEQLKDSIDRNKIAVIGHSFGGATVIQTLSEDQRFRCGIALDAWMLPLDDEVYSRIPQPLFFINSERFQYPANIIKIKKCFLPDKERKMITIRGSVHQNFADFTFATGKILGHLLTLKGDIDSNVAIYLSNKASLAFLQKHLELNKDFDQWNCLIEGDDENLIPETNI
Method: (§1) The activities of compounds were measured using [^3H] labeled platelet activating factor ([^3H]PAF, Perkinelmer, Lot NET910) as the substrate. The reaction was carried out in a system containing 50 mmol/L HEPES and 150 mmol/L NaCl (pH 7.4) in a total volume of 200 μl. First, 10 μL rabbit serum and 10 μl DMSO solution of the test compound were added to the system and preincubated for 10 min at 37° C. Then 20 nM [^3H]PAF was added as listed in table 1 to start the reaction and incubated for a further 10 min at 37° C. After that, 600 μl of CHCl3/MeOH (2:1) was added and the resulting mixture was vortex mixed and the reaction was stopped. After settled for a while, the mixture was centrifugated at 12000×g for 15 min. The supernatant was transferred to a new tube and 200 μl of CHCl3 was added. The mixture was mixed by vortexing and then settled or centrifugated for 2 min. A 100 μl portion of the supernatant was then collected for radioactivity intensity measurement.
The inhibition rate was determined by the following equation:
Inhibitory rate (%)=1−(DPMcompound tube−DPMblank tube)/(DPMcontrol tube−DPMblank tube)*100%
(Note: DPM is radioactivity intensity unit.)

Lp-PLA2 in human serum = target: T2, Lp-PLA2 in human serum (Homo sapiens, UniProt Q13093); experiment: In vitro inhibitory activity towards the enzyme Lp-PLA2 in human serum, [3H]PAF substrate; assay type: biochemical; conditions: for inhibition at 0.01 µM: 10 nM; for inhibition at 0.1 µM: 100 nM
T2 construct: from tissue
T2 sequence (Q13093 22-441): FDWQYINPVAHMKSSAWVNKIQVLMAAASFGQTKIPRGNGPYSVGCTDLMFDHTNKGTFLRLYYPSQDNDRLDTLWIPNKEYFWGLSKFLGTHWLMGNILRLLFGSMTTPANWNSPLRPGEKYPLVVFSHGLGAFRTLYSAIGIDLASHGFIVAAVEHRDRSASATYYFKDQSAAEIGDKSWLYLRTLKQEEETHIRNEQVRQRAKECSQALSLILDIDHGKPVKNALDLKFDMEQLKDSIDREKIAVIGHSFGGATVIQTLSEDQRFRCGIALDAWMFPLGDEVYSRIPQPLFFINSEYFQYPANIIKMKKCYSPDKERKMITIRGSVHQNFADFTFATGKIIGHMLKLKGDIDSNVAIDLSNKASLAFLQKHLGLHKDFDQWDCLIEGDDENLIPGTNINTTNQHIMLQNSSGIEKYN
Method: as §1, with “mmol/l” for “mmol/L”, “human plasma” for “rabbit serum”, “was” for “was vortex”, “with vortex.” for “and the reaction was stopped.”, “added and mixed by vortexing.” for “added.”, “was” for “was mixed by vortexing and then”

[1] = rabbit serum, read-out: inhibition, %
[2] = human serum, read-out: inhibition, %
[3] = read-out: inhibitory rate towards the rabbit serum derived Lp-PLA2 enzyme
[4] = read-out: inhibitory rate towards the human serum derived Lp-PLA2 enzyme

| SMILES | inhibition at 0.1 µM (Lp-PLA2 in rabbit serum; [1]) | inhibition at 0.01 µM (Lp-PLA2 in human serum; [2]) | inhibition at 0.1 µM (Lp-PLA2 in human serum; human serum) | inhibition at 0.1 µM (Lp-PLA2 in rabbit serum; [3]) | inhibition at 0.01 µM (Lp-PLA2 in human serum; [4]) | inhibition at 1 µM (Lp-PLA2 in rabbit serum; rabbit serum) | inhibition at 10 µM (Lp-PLA2 in rabbit serum; rabbit serum) |
| --- | --- | --- | --- | --- | --- | --- | --- |
| C[N+](C)(Cc1ccc(F)cc1)Cc1cnc(Cn2c(SCc3ccc(F)cc3)nc(=O)c3c2CCC3)n1Cc1ccc(-c2ccc(C(F)(F)F)cc2)cc1 [Example 47, N-(4-fluorobenzyl)-1-(2-((2-(4-fluorobenzylthio)-4-oxo-4,5,6,7-tetrahydro-1H-cyclopenta[d]pyrimidin-1-yl)methyl)-1-((4′-(trifluoromethyl)biphenyl-4-yl)methyl)-1H-imidazol-5-yl)-N,N-dimethylmethanaminium bromide] | 96.9% | 93% | 99% | > 90% | > 80% | 98.6% | – |
| O=c1nc(SCc2ccc(F)cc2)n(Cc2ncc(C[N+]3(Cc4ccc(F)cc4)CCCC3)n2Cc2ccc(-c3ccc(C(F)(F)F)cc3)cc2)c2c1CCC2 [Example 49, 1-(4-fluorobenzyl)-1-(2-((2-(4-fluorobenzylthio)-4-oxo-4,5,6,7-tetrahydro-1H-cyclopenta[d]pyrimidin-1-yl)methyl)-1-((4′-(trifluoromethyl)biphenyl-4-yl)methyl)-1H-imidazol-5-yl)methyl)pyrrolidinium bromide] | – | 97% | 98% | – | > 80% | – | – |
| Cc1cnc(Cn2cc(Cc3cnn(C)c3)c(=O)nc2SCc2ccc(F)cc2)n1Cc1ccc(-c2ccc(C(F)(F)F)cc2)cc1 [Example 41, 2-(4-fluorobenzylthio)-1-((5-methyl-1-((4′-(trifluoromethyl)biphenyl-4-yl)methyl)-1H-imidazol-2-yl)methyl)-5-((1-methyl-1H-pyrazol-4-yl)methyl)pyrimidin-4(1H)-one] | 12.6% | – | – | – | – | 64.9% | – |
| O=c1nc(SCc2cccc(F)c2F)n(CC2=NOC(c3ccc(-c4ccc(C(F)(F)F)cc4)cc3)N2CCN2CCCCC2)c2c1CCC2 (stereo not shown) [Example 23, 2-(2,3-difluorobenzylthio)-1-((4-(2-(piperidin-1-yl)ethyl)-5-(4′-(trifluoromethyl)biphenyl-4-yl)-4,5-dihydro-1,2,4-oxadiazol-3-yl)methyl)-6,7-dihydro-1H-cyclopenta[d]pyrimidin-4(5H)-one] | – | – | – | – | – | 33% | 82.4% |
| CCN(CC)CCN1C(Cn2c(SCc3ccc(F)cc3)nc(=O)c3c2CCC3)=NOC1c1ccc(-c2ccc(C(F)(F)F)cc2)cc1 (stereo not shown) [Example 24, 1-((4-(2-(diethylamino)eth-yl)-5-(4′-(trifluorometh-yl)biphenyl-4-yl)-4,5-di-hydro-1,2,4-oxadiazol-3-yl)methyl)-2-(4-fluorobenzyl-thio)-6,7-dihydro-1H-cyclopenta[d]pyrimidin-4(5H)-one] | – | – | – | – | – | 16.3% | 78.5% |
| CCOC(=O)N1CCC(N2C(Cn3c(SCc4cccc(F)c4F)nc(=O)c4c3CCC4)=NOC2c2ccc(-c3ccc(C(F)(F)F)cc3)cc2)CC1 (stereo not shown) [Example 21, ethyl 4-(3-((2-(2,3-difluorobenzylthio)-4-oxo-4,5,6,7-tetrahydro-1H-cyclopenta[d]pyrimidin-1-yl)methyl)-5-(4′-(trifluoromethyl)biphenyl-4-yl)-1,2,4-oxadiazol-4(5H)-yl)piperidine-1-carboxylate] | – | – | – | – | – | – | 51.2% |
| O=c1nc(SCc2ccc(F)cc2)n(Cc2ncc(-c3ccccc3)[nH]2)c2c1CCC2 [Example 26, 2-(4-fluorobenzylthio)-1-((5-phenyl-1H-imidazol-2-yl)methyl)-6,7-dihydro-1H-cyclopenta[d]pyrimidin-4(5H)-one] | – | – | – | – | – | – | 7.4% |
| O=c1nc(SCc2ccc(F)cc2)n(CC2=NOC(c3ccc(-c4ccc(C(F)(F)F)cc4)cc3)N2CCN2CCCCC2)c2c1CCC2 (stereo not shown) [Example 20, 2-(4-fluorobenzylthio)-1-((4-(2-(piperidin-1-yl)ethyl)-5-(4′-(trifluoromethyl)biphenyl-4-yl)-4,5-dihydro-1,2,4-oxadiazol-3-yl)methyl)-6,7-dihydro-1H-cyclopenta[d]pyrimidin-4(5H)-one] | – | – | – | – | – | 31% | 86.6% |

Results, then the compound that gave them:

| inhibition at 0.1 µM (Lp-PLA2 in rabbit serum; [1]) | inhibition at 0.01 µM (Lp-PLA2 in human serum; [2]) | inhibition at 0.1 µM (Lp-PLA2 in human serum; human serum) | inhibition at 0.1 µM (Lp-PLA2 in rabbit serum; [3]) | inhibition at 0.01 µM (Lp-PLA2 in human serum; [4]) | inhibition at 1 µM (Lp-PLA2 in rabbit serum; rabbit serum) | inhibition at 10 µM (Lp-PLA2 in rabbit serum; rabbit serum) | SMILES |
| --- | --- | --- | --- | --- | --- | --- | --- |
| 86% | 77% | 96% | – | – | – | – | CN(Cc1nnc(Cn2c(SCc3ccc(F)cc3)nc(=O)c3c2CCC3)n1Cc1ccc(-c2ccc(C(F)(F)F)cc2)cc1)C1CC1 [Example 101, 1-((5-((cyclopropyl(methyl)amino)methyl)-4-((4′-(trifluoromethyl)biphenyl-4-yl)methyl)-4H-1,2,4-triazol-3-yl)methyl)-2-(4-fluorobenzylthio)-6,7-dihydro-1H-cyclopenta[d]pyrimidin-4(5H)-one] |
| 89% | 87% | 97% | – | – | – | – | O=c1nc(SCc2ccc(F)cc2)n(Cc2nnc(CS(=O)(=O)Cc3ccccc3)n2Cc2ccc(-c3ccc(C(F)(F)F)cc3)cc2)c2c1CCC2 [Example 69, 1-((5-(benzylsulfonylmethyl)-4-((4′-(trifluoromethyl)biphenyl-4-yl)methyl)-4H-1,2,4-triazol-3-yl)methyl)-2-(4-fluorobenzylthio)-6,7-dihydro-1H-cyclopenta[d]pyrimidin-4(5H)-one] |
| 96% | 80% | – | > 90% | > 80% | – | – | CCN1CCC[C@H]1CNCc1nnc(Cn2c(SCc3ccc(F)cc3)nc(=O)c3c2CCC3)n1Cc1ccc(-c2ccc(C(F)(F)F)cc2)cc1 [Example 106, (S)-1-((5-(((1-ethylpyrrolidin-2-yl)methylamino)methyl)-4-((4′-(trifluoromethyl)biphenyl-4-yl)methyl)-4H-1,2,4-triazol-3-yl)methyl)-2-(4-fluorobenzylthio)-6,7-dihydro-1H-cyclopenta[d]pyrimidin-4(5H)-one] |
| 97% | 77% | – | – | – | – | – | O=C1NCCN1CCNCc1nnc(Cn2c(SCc3ccc(F)cc3)nc(=O)c3c2CCC3)n1Cc1ccc(-c2ccc(C(F)(F)F)cc2)cc1 [Example 102, 2-(4-fluorobenzylthio)-1-((5-((2-(2-oxoimidazolidin-1-yl)ethylamino)methyl)-4-((4′-(trifluoromethyl)biphenyl-4-yl)methyl)-4H-1,2,4-triazol-3-yl)methyl)-6,7-dihydro-1H-cyclopenta[d]pyrimidin-4(5H)-one] |
| 90% | 82% | 96% | > 90% | > 80% | – | – | CCN1CCN(Cc2nnc(Cn3c(SCc4ccc(F)cc4)nc(=O)c4c3CCC4)n2Cc2ccc(-c3ccc(C(F)(F)F)cc3)cc2)CC1 [Example 86, 1-((5-((4-ethylpiperazin-1-yl)methyl)-4-((4′-(trifluoromethyl)biphenyl-4-yl)methyl)-4H-1,2,4-triazol-3-yl)methyl)-2-(4-fluorobenzylthio)-6,7-dihydro-1H-cyclopenta[d]pyrimidin-4(5H)-one] |
| 13.4% | – | – | – | – | – | – | CC(C)(C(=O)O)N1CCN(Cc2nnc(Cn3c(SCc4ccc(F)cc4)nc(=O)c4c3CCC4)n2Cc2ccc(-c3ccc(C(F)(F)F)cc3)cc2)CC1 [Example 89, 2-(4-((5-((2-(4-fluorobenzylthio)-4-oxo-4,5,6,7-tetrahydro-1H-cyclopenta[d]pyrimidin-1-yl)methyl)-4-((4′-(trifluoromethyl)biphenyl-4-yl)methyl)-4H-1,2,4-triazol-3-yl)methyl)piperazin-1-yl)-2-methylpropanoic acid] |
